Laboratory results reported in US8063071B2 (GlaxoSmithKline, LLC, priority 2007, dated 2011).
Structures can show the parent of a compound that is named as a salt.

Experiments:
[1] = target: T1, Recombinant human IKKβ (residues 1-737) (Homo sapiens, UniProt O14920); test: IKK2 assay (TR-FRET); format: biochemical; conditions: ATP 1 μM final, read-out: pIC50 against IKK2 (converted)
T1 construct: Recombinant human IKKβ (residues 1-737); GST (C); made in house
T1 sequence (O14920 1-737): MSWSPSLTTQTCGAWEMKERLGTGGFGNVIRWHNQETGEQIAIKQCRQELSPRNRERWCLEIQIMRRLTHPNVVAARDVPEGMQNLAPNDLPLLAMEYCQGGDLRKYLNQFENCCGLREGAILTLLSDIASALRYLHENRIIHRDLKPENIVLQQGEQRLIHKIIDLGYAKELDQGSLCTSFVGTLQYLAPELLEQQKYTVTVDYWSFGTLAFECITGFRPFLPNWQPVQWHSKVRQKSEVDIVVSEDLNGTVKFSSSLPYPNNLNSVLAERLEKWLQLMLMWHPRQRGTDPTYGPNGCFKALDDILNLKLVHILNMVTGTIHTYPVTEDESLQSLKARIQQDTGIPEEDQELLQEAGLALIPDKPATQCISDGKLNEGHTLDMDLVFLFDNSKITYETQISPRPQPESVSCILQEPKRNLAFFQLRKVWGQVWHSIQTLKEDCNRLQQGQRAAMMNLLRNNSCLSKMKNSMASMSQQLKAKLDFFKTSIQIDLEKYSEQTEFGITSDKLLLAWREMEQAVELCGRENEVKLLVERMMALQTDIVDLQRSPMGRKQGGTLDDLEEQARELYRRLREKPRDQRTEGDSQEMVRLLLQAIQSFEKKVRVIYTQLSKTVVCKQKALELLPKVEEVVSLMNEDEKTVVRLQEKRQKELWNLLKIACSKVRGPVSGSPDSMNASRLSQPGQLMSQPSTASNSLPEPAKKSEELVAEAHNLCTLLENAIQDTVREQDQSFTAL
Procedure, shortened: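 Baculovirus-expressed C-terminal GST-tagged IKKβ (0.5-5 nM final) in HEPES pH 7.4, MgCl2, CHAPS, DTT, BSA with 1.7% DMSO; 25 nM GST-IB substrate and 1 μM ATP, 15 min at room temperature. EDTA stop; phospho-Ser32/36 detected by Eu-antibody/APC-anti-GST TR-FRET, 665/620 nm ratio.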

[2] = test system: human monocyte stimulated cytokine production (TNF-α); test: Monocyte assay (LPS-stimulated TNF-α production); format: cell-based; conditions: for IC50: 24 h, 200 ng/mL LPS, TNF-α by ELISA; for inhibition at 0.3 µM: read-out: inhibition at 300 nM in the monocyte assay
Procedure, shortened: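 Human CD14+ monocytes were purified from blood and plated at 1×10^6 cells/mL in RPMI 1640 with 10% FBS. Compound was added 30 min before stimulation with 200 ng/mL LPS (0.1% DMSO final), followed by 24 hrs at 37 C. Supernatant TNF-α was measured by ELISA, and viability by trypan blue exclusion.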

| Compound | IC50 [1] | IC50 [2] | inhibition at 0.3 µM [2] |
| --- | --- | --- | --- |
| CCS(=O)(=O)N1CCC(c2c[nH]c3c(C(N)=O)cc(-c4csc(CN(C)Cc5ccncc5)c4)cc23)CC1 [Example 78, 3-[1-(ethylsulfonyl)-4-piperidinyl]-5-(5-{[methyl(4-pyridinylmethyl)amino]methyl}-3-thienyl)-1H-indole-7-carboxamide trifluoroacetate] | ≤ 10 µM | ≤ 1.5 µM | – |
| CCS(=O)(=O)N1CCC(c2c[nH]c3c(C(N)=O)cc(-c4csc(CN(C)Cc5cccs5)c4)cc23)CC1 [Example 80, 3-[1-(ethylsulfonyl)-4-piperidinyl]-5-(5-{[methyl(2-thienylmethyl)amino]methyl}-3-thienyl)-1H-indole-7-carboxamide trifluoroacetate] | ≤ 10 µM | – | 0 to 60% |
| CCS(=O)(=O)N1CCC(c2c[nH]c3c(C(N)=O)cc(-c4csc(CN(C)C(C)c5cccs5)c4)cc23)CC1 (centres unmarked) [Example 81, 3-[1-(ethylsulfonyl)-4-piperidinyl]-5-[5-({methyl[1-(2-thienyl)ethyl]amino}methyl)-3-thienyl]-1H-indole-7-carboxamide trifluoroacetate] | ≤ 10 µM | – | 0 to 60% |
| CCS(=O)(=O)N1CCC(c2c[nH]c3c(C(N)=O)cc(-c4csc(CN(C)Cc5ccsc5)c4)cc23)CC1 [Example 82, 3-[1-(ethylsulfonyl)-4-piperidinyl]-5-(5-{[methyl(3-thienylmethyl)amino]methyl}-1′-3-thienyl)-1H-indole-7-carboxamide trifluoroacetate] | ≤ 10 µM | ≤ 1.5 µM | – |
| CCS(=O)(=O)N1CCC(c2c[nH]c3c(C(N)=O)cc(-c4csc(CN(C)Cc5cccnc5)c4)cc23)CC1 [Example 84, 3-[1-(ethylsulfonyl)-4-piperidinyl]-5-(5-{[methyl(3-pyridinylmethyl)amino]methyl}-3-thienyl)-1H-indole-7-carboxamide trifluoroacetate] | ≤ 10 µM | – | 0 to 60% |
| CCS(=O)(=O)N1CCC(c2c[nH]c3c(C(N)=O)cc(-c4csc(CN(C)Cc5ccncn5)c4)cc23)CC1 [Example 85, 3-[1-(ethylsulfonyl)-4-piperidinyl]-5-(5-{[methyl(4-pyrimidinylmethyl)amino]methyl}-3-thienyl)-1H-indole-7-carboxamide trifluoroacetate] | ≤ 10 µM | – | 0 to 60% |
| CCS(=O)(=O)N1CCC(c2c[nH]c3c(C(N)=O)cc(-c4csc(CN5CCCC5c5cccnc5)c4)cc23)CC1 (centres unmarked) [Example 90, 3-[1-(ethylsulfonyl)-4-piperidinyl]-5-(5-{[2-(3-pyridinyl)-1-pyrrolidinyl]methyl}-3-thienyl)-1H-indole-7-carboxamide] | ≤ 10 µM | – | 0 to 60% |
| CCCN(C)Cc1cc(-c2cc(C(N)=O)c3[nH]cc(C4CCN(S(=O)(=O)C(C)C)CC4)c3c2)cs1 [Example 100, 3-{1-[(1-methylethyl)sulfonyl]-4-piperidinyl}-5-(5-{[methyl(propyl)amino]methyl}-3-thienyl)-1H-indole-7-carboxamide trifluoroacetate] | ≤ 10 µM | ≤ 1.5 µM | – |
| CCN(C)Cc1cc(-c2cc(C(N)=O)c3[nH]cc(C4CCN(S(=O)(=O)C(C)C)CC4)c3c2)cs1 [Example 101, 5-(5-{[ethyl(methyl)amino]methyl}-3-thienyl)-3-{1-[(1-methylethyl)sulfonyl]-4-piperidinyl}-1H-indole-7-carboxamide] | ≤ 10 µM | ≤ 1.5 µM | – |

Continued, in another order:

| IC50 [1] | IC50 [2] | Compound | inhibition at 0.3 µM [2] |
| --- | --- | --- | --- |
| ≤ 10 µM | – | CCS(=O)(=O)N1CCC(c2c[nH]c3c(C(N)=O)cc(-c4csc(CN(C)CC5CCN(C(C)C)C5)c4)cc23)CC1 (centres unmarked) [Example 79, 3-[1-(ethylsulfonyl)-4-piperidinyl]-5-{5-[(methyl{[1-(1-methylethyl)-3-pyrrolidinyl]methyl}amino)methyl]-3-thienyl}-1H-indole-7-carboxamide trifluoroacetate] | 0 to 60% |
| ≤ 10 µM | ≤ 1.5 µM | CCS(=O)(=O)N1CCC(c2c[nH]c3c(C(N)=O)cc(-c4csc(CN(C)CC5CCOCC5)c4)cc23)CC1 [Example 83, 3-[1-(ethylsulfonyl)-4-piperidinyl]-5-(5-{[methyl(tetrahydro-2H-pyran-4-ylmethyl)amino]methyl}-3-thienyl)-1H-indole-7-carboxamide trifluoroacetate] | – |
| ≤ 10 µM | ≤ 1.5 µM | CCS(=O)(=O)N1CCC(c2c[nH]c3c(C(N)=O)cc(-c4csc(CN(C)CCOC)c4)cc23)CC1 [Example 86, 3-[1-(ethylsulfonyl)-4-piperidinyl]-5-[5-({methyl[2-(methyloxy)ethyl]amino}methyl)-3-thienyl]-1H-indole-7-carboxamide trifluoroacetate] | – |
| ≤ 10 µM | ≤ 1.5 µM | CCS(=O)(=O)N1CCC(c2c[nH]c3c(C(N)=O)cc(-c4csc(CN(C)C(C)C)c4)cc23)CC1 [Example 88, 3-[1-(ethylsulfonyl)-4-piperidinyl]-5-(5-{[methyl(1-methylethyl)amino]methyl}-3-thienyl)-1H-indole-7-carboxamide trifluoroacetate] | – |
| ≤ 10 µM | ≤ 1.5 µM | CCCC1CCCN1Cc1cc(-c2cc(C(N)=O)c3[nH]cc(C4CCN(S(=O)(=O)CC)CC4)c3c2)cs1 (centres unmarked) [Example 89, 3-[1-(ethylsulfonyl)-4-piperidinyl]-5-{5-[(2-propyl-1-pyrrolidinyl)methyl]-3-thienyl}-1H-indole-7-carboxamide] | – |
| ≤ 10 µM | – | CCS(=O)(=O)N1CCC(c2c[nH]c3c(C(N)=O)cc(-c4csc(CN5CCCC5C(C)(C)C)c4)cc23)CC1 (centres unmarked) [Example 91, 5-(5-{[2-(1,1-dimethylethyl)-1-pyrrolidinyl]methyl}-3-thienyl)-3-[1-(ethylsulfonyl)-4-piperidinyl]-1H-indole-7-carboxamide trifluoroacetate] | 0 to 60% |
| ≤ 10 µM | ≤ 1.5 µM | CCC1CCCN1Cc1cc(-c2cc(C(N)=O)c3[nH]cc(C4CCN(S(=O)(=O)CC)CC4)c3c2)cs1 (centres unmarked) [Example 92, 5-{5-[(2-ethyl-1-pyrrolidinyl)methyl]-3-thienyl}-3-[1-(ethylsulfonyl)-4-piperidinyl]-1H-indole-7-carboxamide] | – |
| ≤ 10 µM | – | CCS(=O)(=O)N1CCC(c2c[nH]c3c(C(N)=O)cc(-c4csc(CN5CCCC5C(C)C)c4)cc23)CC1 (centres unmarked) [Example 94, 3-[1-(ethylsulfonyl)-4-piperidinyl]-5-(5-{[2-(1-methylethyl)-1-pyrrolidinyl]methyl}-3-thienyl)-1H-indole-7-carboxamide] | 0 to 60% |
| ≤ 10 µM | ≤ 1.5 µM | CCS(=O)(=O)N1CCC(c2c[nH]c3c(C(N)=O)cc(-c4csc(CN5CCC[C@H]5COC)c4)cc23)CC1 [Example 95, 3-[1-(ethylsulfonyl)-4-piperidinyl]-5-[5-({(2S)-2-[(methyloxy)methyl]-1-pyrrolidinyl}methyl)-3-thienyl]-1H-indole-7-carboxamide] | – |
| ≤ 10 µM | ≤ 1.5 µM | CCS(=O)(=O)N1CCC(c2c[nH]c3c(C(N)=O)cc(-c4csc(CN(C)C5CCCCC5)c4)cc23)CC1 [Example 96, 5-(5-{[cyclohexyl(methyl)amino]methyl}-3-thienyl)-3-[1-(ethylsulfonyl)-4-piperidinyl]-1H-indole-7-carboxamide] | – |
